# Laboratory results published in publication PMC10108266, “Pharmacokinetic characteristics of golidocitinib, a highly selective JAK1 inhibitor, in healthy adult participants” (Frontiers in Immunology, 2023).
# Assay: Safety (TEAEs), JACKPOT2 SAD cohorts
# Type: in vivo, human
# Details: n = 4
# From the text: Safety assessments included monitoring of adverse events/serious adverse events, clinical safety laboratory tests (clinical chemistry, hematology, coagulation, and urinalysis tests), 12-lead ECG, vital signs (blood pressure, pulse rate, and respiratory rate), and pulmonary function. All adverse events were coded using the Medical Dictionary for Regulatory Activities (MedDRA), version 22.0. The CTCAE 5.0 was used to define the intensity of AEs.
smiles,measurement,setting,value
"COc1nn(C)cc1Nc1nccc(-c2c[nH]c3c(NC(=O)[C@@H](C)N4CCN(C)CC4)cccc23)n1 [golidocitinib, (2R)-N-[3-[2-[(3-Methoxy-1-methyl-pyrazol-4-yl)amino]pyrimidin-4-yl]-1H-indol-7-yl]-2-(4-methylpiperazin-1-yl)propenamide]",ALT Increased,5 mg single dose,0 n (%)
same,AST Increased,5 mg single dose,0 n (%)
same,Anemia,5 mg single dose,1 (25.0%) n (%)
same,Blood and Lymphatic System Disorders,5 mg single dose,2 (50.0%) n (%)
same,Chest Discomfort,5 mg single dose,0 n (%)
same,Dyspnea,5 mg single dose,0 n (%)
same,Eosinophilia,5 mg single dose,2 (50.0%) n (%)
same,General Disorders and Administration Site Conditions,5 mg single dose,0 n (%)
same,Investigations,5 mg single dose,0 n (%)
same,N-Terminal Pro-BNP,5 mg single dose,0 n (%)
same,Nasal Congestion,5 mg single dose,1 (25.0%) n (%)
same,Neutropenia,5 mg single dose,0 n (%)
same,Oropharyngeal Pain,5 mg single dose,1 (25.0%) n (%)
same,"Respiratory, Thoracic and Mediastinal Disorders",5 mg single dose,2 (50.0%) n (%)
same,Subjects with at least one TEAE,5 mg single dose,2 (50.0%) n (%)
same,Thrombocytosis,5 mg single dose,0 n (%)
same,ALT Increased,20 mg single dose,0 n (%)
same,AST Increased,20 mg single dose,0 n (%)
same,Anemia,20 mg single dose,0 n (%)
same,Blood and Lymphatic System Disorders,20 mg single dose,2 (50.0%) n (%)
same,Chest Discomfort,20 mg single dose,0 n (%)
same,Dyspnea,20 mg single dose,0 n (%)
same,Eosinophilia,20 mg single dose,0 n (%)
same,General Disorders and Administration Site Conditions,20 mg single dose,0 n (%)
same,Investigations,20 mg single dose,0 n (%)
same,N-Terminal Pro-BNP,20 mg single dose,0 n (%)
same,Nasal Congestion,20 mg single dose,0 n (%)
same,Neutropenia,20 mg single dose,1 (25.0%) n (%)
same,Oropharyngeal Pain,20 mg single dose,0 n (%)
same,"Respiratory, Thoracic and Mediastinal Disorders",20 mg single dose,0 n (%)
same,Subjects with at least one TEAE,20 mg single dose,2 (50.0%) n (%)
same,Thrombocytosis,20 mg single dose,1 (25.0%) n (%)
same,ALT Increased,50 mg single dose,0 n (%)
same,AST Increased,50 mg single dose,0 n (%)
same,Anemia,50 mg single dose,0 n (%)
same,Blood and Lymphatic System Disorders,50 mg single dose,0 n (%)
same,Chest Discomfort,50 mg single dose,0 n (%)
same,Dyspnea,50 mg single dose,0 n (%)
same,Eosinophilia,50 mg single dose,0 n (%)
same,General Disorders and Administration Site Conditions,50 mg single dose,0 n (%)
same,Investigations,50 mg single dose,1 (25.0%) n (%)
same,N-Terminal Pro-BNP,50 mg single dose,1 (25.0%) n (%)
same,Nasal Congestion,50 mg single dose,0 n (%)
same,Neutropenia,50 mg single dose,0 n (%)
same,Oropharyngeal Pain,50 mg single dose,0 n (%)
same,"Respiratory, Thoracic and Mediastinal Disorders",50 mg single dose,0 n (%)
same,Subjects with at least one TEAE,50 mg single dose,1 (25.0%) n (%)
same,Thrombocytosis,50 mg single dose,0 n (%)
same,ALT Increased,100 mg single dose,0 n (%)
same,AST Increased,100 mg single dose,0 n (%)
same,Anemia,100 mg single dose,0 n (%)
same,Blood and Lymphatic System Disorders,100 mg single dose,1 (25.0%) n (%)
same,Chest Discomfort,100 mg single dose,1 (25.0%) n (%)
same,Dyspnea,100 mg single dose,0 n (%)
same,Eosinophilia,100 mg single dose,0 n (%)
same,General Disorders and Administration Site Conditions,100 mg single dose,1 (25.0%) n (%)
same,Investigations,100 mg single dose,0 n (%)
same,N-Terminal Pro-BNP,100 mg single dose,0 n (%)
same,Nasal Congestion,100 mg single dose,0 n (%)
same,Neutropenia,100 mg single dose,0 n (%)
same,Oropharyngeal Pain,100 mg single dose,0 n (%)
same,"Respiratory, Thoracic and Mediastinal Disorders",100 mg single dose,0 n (%)
same,Subjects with at least one TEAE,100 mg single dose,1 (25.0%) n (%)
same,Thrombocytosis,100 mg single dose,1 (25.0%) n (%)
same,ALT Increased,150 mg single dose,0 n (%)
same,AST Increased,150 mg single dose,0 n (%)
same,Anemia,150 mg single dose,0 n (%)
same,Blood and Lymphatic System Disorders,150 mg single dose,0 n (%)
same,Chest Discomfort,150 mg single dose,0 n (%)
same,Dyspnea,150 mg single dose,0 n (%)
same,Eosinophilia,150 mg single dose,0 n (%)
same,General Disorders and Administration Site Conditions,150 mg single dose,0 n (%)
same,Investigations,150 mg single dose,0 n (%)
same,N-Terminal Pro-BNP,150 mg single dose,0 n (%)
same,Nasal Congestion,150 mg single dose,0 n (%)
same,Neutropenia,150 mg single dose,0 n (%)
same,Oropharyngeal Pain,150 mg single dose,0 n (%)
same,"Respiratory, Thoracic and Mediastinal Disorders",150 mg single dose,0 n (%)
same,Subjects with at least one TEAE,150 mg single dose,0 n (%)
same,Thrombocytosis,150 mg single dose,0 n (%)
